“And” between values parts separate entries of the source, which are not always exact repeats. Equal entries are not always repeated.
Tests used:
[1] = biological target: T1, hOATP1B3 (Homo sapiens, UniProt Q9NPD5); assay: Inhibition of vincristine uptake in HEK293 cells overexpressing hOATP1B3; conditions: inhibitor 15 min pre-treatment
T1 sequence (Q9NPD5 1-702): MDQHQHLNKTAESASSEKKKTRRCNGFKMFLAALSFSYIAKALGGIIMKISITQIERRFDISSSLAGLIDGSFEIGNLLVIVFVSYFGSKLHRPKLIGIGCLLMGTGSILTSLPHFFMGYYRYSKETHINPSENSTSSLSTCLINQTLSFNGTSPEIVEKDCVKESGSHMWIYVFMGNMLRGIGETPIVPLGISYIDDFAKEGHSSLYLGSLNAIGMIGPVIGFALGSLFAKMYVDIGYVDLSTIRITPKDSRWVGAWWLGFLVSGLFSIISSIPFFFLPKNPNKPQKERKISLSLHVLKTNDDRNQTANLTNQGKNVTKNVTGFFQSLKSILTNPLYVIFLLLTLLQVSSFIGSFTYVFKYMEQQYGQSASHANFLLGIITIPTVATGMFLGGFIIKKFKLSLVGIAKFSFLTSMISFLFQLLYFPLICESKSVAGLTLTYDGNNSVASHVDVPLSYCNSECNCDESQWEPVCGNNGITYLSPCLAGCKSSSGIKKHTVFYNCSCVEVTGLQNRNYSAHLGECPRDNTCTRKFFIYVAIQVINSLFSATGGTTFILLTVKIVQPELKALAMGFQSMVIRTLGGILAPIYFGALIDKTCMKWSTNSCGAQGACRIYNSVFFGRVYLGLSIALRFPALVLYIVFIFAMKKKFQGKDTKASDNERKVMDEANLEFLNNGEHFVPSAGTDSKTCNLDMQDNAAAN

[2] = Nilotinib levels in liver and DRG of mice; assay type: in vivo, mouse; conditions: OATP1B2(-/-) mice; for concentration at […]: DBA/1LacJ, mouse, liver, oral, Liver nilotinib
Description: Pharmacokinetic studies. Pharmacokinetic studies were performed following an established protocol
0.5% hydroxypropyl-methylcellulose in water) was administered at a dose of 10 mg/kg . Serial whole blood
points, from the retro-orbital sinus vein for the subsequent two time-points, and cardiac puncture at the terminal time-point. Blood samples were centrifuged at 11,000 rpm for 5 min, and the plasma supernatants collected and stored at -80°C until analysis by a validated method based on reversed -phase liquid chromatography coupled to tandem mass-spectrometric detection (LC-MS/MS).
mg/kg or 100 mg/kg, and after 1.5 h, plasma, liver, and whole DRG were collected. All plasma and tissue specimens were stored at -80°C until further processing.
injection at a dose of 1 mg/kg. Whole blood samples were collected 0.08, 0.25, 0.5, 1, and 4 h, and livers were collected at the final time point.
Finally, the beads were removed, and the homogenized samples were stored at -80°C until analysis by LC-MS/MS.
Pharmacokinetic parameters were calculated by non -compartmental analysis using Phoenix WinNonlin version 8.0 (Certara). Peak plasma concentration (C max) was determined by visual inspection of the data from the concentration-time curves. The linear trapezoidal rule was used to obtain the area under the plasma concentration-time curve (AUC), and drug levels in tissues were corrected for
Determination of drug levels.
Quantiva triple quadrupole mass spectrometer from Thermo Fisher Scientific was used for LC-MS/MS
An Accucore aQ column (150 × 2.1 mm, dp = 2.6 μm, Thermo Fisher Scientific) was protected
volume was 5.0 μL. The temperature of the autosampler rack was 4°C, and the temperature of the
column was maintained at 50°C. Mobile phase A consisted of water with 0.1% (v/v) formic acid and
mobile phase B consisted of acetonitrile: methanol (1:1) with 0.1% (v/v) formic acid.
assay setting with the positive voltage applied to the ESI capillary was set at 4000 V, and the capillary

[3] = biological target: hOAT4 (Homo sapiens, UniProt Q9NSA0); assay: Vincristine uptake screen, HeLa cells overexpressing hOAT4; assay type: in vitro ADME
hOAT4, sequence (Q9NSA0 whole entry): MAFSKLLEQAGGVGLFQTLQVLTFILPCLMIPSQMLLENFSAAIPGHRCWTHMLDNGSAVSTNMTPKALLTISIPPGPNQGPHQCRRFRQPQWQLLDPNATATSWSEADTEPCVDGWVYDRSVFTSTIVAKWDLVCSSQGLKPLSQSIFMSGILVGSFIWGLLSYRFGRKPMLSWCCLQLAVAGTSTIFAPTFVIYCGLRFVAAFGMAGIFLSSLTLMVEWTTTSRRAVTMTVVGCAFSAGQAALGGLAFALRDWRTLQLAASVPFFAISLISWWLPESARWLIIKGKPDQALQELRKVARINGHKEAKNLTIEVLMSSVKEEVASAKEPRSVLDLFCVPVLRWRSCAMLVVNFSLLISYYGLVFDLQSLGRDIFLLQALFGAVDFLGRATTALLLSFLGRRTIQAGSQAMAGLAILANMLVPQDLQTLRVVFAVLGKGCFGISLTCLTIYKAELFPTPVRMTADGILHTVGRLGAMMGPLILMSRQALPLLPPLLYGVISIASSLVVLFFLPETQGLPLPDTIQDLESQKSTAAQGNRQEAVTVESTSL
Description: (§1) Relative uptake is expressed as percentage change compared with empty vector controls (n = 4–14 per group). […] Human OATP1B1 and OATP1B3 transporter–overexpressed cells were used as positive controls; empty vector controls were used as the negative control. […] Mechanical allodynia (C), thermal hyperalgesia (D), and sciatic nerve maximal action potential amplitudes (E) are expressed as percentage change relative to baseline values (n = 6–8 per group). Statistical analysis was performed using a 2-way ANOVA with Bonferroni’s post hoc test. **P < 0.01, ***P < 0.001, ****P < 0.0001, compared with baseline values. […] Data are shown as mean ± SEM. […]
(§2) transfected with transporters of interest, including hOAT1, hOAT3, hOAT4, hOATP1A2, hOATP3A1, hOATP4A1, hOATP5A1, hOATP1C1, hOATP1B1, hOATP1B3, hOATP2B1, hOCT1, hOCT2, hOCTN1, hOCTN2, hASBT, hNTCP, hNPT1, hMATE1, hOSTα/β, hPEPT1, hPEPT2, rOatp1a1, rOatp1a4, rOatp1a5, rOatp1b2, rNtcp, rAsbt, rOat1, and rOct1. Cells were transfected with expression plasmid or vector control lacking any insert using Lipofectin reagent (Invitrogen). […] The cellular radioactivity was quantified by liquid scintillation counting as described above. […]
Samples were analyzed using real-time quantitative PCR and Taqman Probes (Applied Biosystems). The relative gene expression was determined using the ΔΔCt method, and normalized to the mouse or human housekeeping gene, GAPDH. […]

[4] = biological target: hNPT1 (Homo sapiens, UniProt Q14916); assay: Vincristine uptake screen, HeLa cells overexpressing hNPT1; assay type: in vitro ADME
hNPT1, sequence (Q14916 whole entry): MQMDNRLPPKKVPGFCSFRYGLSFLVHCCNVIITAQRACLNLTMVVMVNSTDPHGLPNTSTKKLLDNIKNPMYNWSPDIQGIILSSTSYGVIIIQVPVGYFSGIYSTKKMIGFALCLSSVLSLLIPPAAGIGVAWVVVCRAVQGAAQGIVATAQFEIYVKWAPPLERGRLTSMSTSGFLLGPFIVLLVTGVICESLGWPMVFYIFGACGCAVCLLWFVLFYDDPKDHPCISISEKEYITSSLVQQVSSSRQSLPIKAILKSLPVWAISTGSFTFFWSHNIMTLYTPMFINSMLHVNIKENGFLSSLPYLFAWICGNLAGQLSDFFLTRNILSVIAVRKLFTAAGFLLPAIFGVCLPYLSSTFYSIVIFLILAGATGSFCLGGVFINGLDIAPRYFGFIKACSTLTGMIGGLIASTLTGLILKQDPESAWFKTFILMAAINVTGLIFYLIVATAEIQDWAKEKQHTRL
Description: as §1
as §2, with “(Invitrogen). Sixteen hours thereafter, cells were washed with transport media (OPTIMEM, Invitrogen) and treated with radiolabeled drug.” for “(Invitrogen).”

[5] = biological target: rOCT1 (Rattus norvegicus, UniProt Q63089); assay: Vincristine uptake screen, HeLa cells overexpressing rOCT1; assay type: in vitro ADME
rOCT1, sequence (Q63089 whole entry): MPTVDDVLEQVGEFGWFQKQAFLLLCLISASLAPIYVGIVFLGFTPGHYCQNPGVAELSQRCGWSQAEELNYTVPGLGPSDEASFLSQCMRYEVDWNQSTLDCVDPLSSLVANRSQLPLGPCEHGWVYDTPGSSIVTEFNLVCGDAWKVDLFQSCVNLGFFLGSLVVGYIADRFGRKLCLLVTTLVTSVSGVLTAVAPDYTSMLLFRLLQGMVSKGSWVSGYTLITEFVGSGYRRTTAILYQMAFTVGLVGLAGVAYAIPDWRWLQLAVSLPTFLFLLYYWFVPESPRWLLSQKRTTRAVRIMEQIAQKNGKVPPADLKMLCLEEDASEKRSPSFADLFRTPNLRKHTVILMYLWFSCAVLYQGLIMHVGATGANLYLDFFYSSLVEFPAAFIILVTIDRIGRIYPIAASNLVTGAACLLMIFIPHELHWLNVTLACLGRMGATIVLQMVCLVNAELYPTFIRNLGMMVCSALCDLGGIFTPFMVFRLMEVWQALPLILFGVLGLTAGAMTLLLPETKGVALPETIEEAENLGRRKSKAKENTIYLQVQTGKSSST
Description: as §1
as §2, with “(Invitrogen). Sixteen hours thereafter, cells were washed with transport media (OPTIMEM, Invitrogen) and treated with radiolabeled drug.” for “(Invitrogen).”

Cc1cn(-c2cc(NC(=O)c3ccc(C)c(Nc4nccc(-c5cccnc5)n4)c3)cc(C(F)(F)F)c2)cn1 [Nilotinib, nilotinib]
Vincristine uptake (% of vehicle) [1]: 56.9618 % of vehicle and 79.3107 % of vehicle and 46.7964 % of vehicle and 63.7354 % of vehicle and 65.1694 % of vehicle and 69.9849 % of vehicle | concentration at […] ([2]; 25 mg/kg): 11900 ng/g | concentration at […] ([2]; 100 mg/kg): 33700 ng/g | Liver nilotinib ([2]; 25mg/kg): 14.24 ng/mg tissue and 15.56 ng/mg tissue | Liver nilotinib ([2]; 100mg/kg): 30.37 ng/mg tissue and 41.94 ng/mg tissue

CC[C@]1(O)C[C@H]2CN(CCc3c([nH]c4ccccc34)[C@@](C(=O)OC)(c3cc4c(cc3OC)N(C=O)[C@H]3[C@@](O)(C(=O)OC)[C@H](OC(C)=O)[C@]5(CC)C=CCN6CC[C@]43[C@@H]65)C2)C1 [Vincristine, vincristine]
Vincristine uptake (% of vector control) [3]: 107.00 % of vector control and 81.00 % of vector control and 79.00 % of vector control and 90.00 % of vector control and 80.00 % of vector control and 99.00 % of vector control and 111.00 % of vector control and 113.00 % of vector control | Vincristine uptake (% of vector control) [4]: 120.00 % of vector control and 91.00 % of vector control and 99.00 % of vector control and 72.00 % of vector control and 100.00 % of vector control and 104.00 % of vector control and 113.00 % of vector control | Vincristine uptake (% of vector control) [5]: 113.00 % of vector control and 108.00 % of vector control and 138.00 % of vector control and 121.00 % of vector control

From paper PMC10443802, “Targeting a xenobiotic transporter to ameliorate vincristine-induced sensory neuropathy” (JCI Insight, 2023)
